Patent publication US8889398B2, “Composition for inactivating an enveloped virus” (Viroblock SA, priority 2006, dated 2014)
“Also recorded” adds a separate entry of the source.

Key:
cellular integrity = conditions: 50-100 mM, range of concentrations used in most in vitro experiments; cited from earlier work
[1] = tested on: rSeV-Luc (recombinant Sendai virus); assay: Inactivation assay with or without cyclodextrin, rSeV-Luc, luciferase activity in MK2 cells; format: cell-based
Procedure: MK2 (monkey) cells were grown at 37° C. in DMEM containing 5% of bovine serum albumin (BSA) until they reached 70% of confluence.
A recombinant Sendai virus was used, rSeV-Luc, which encodes the Photinus pyralis luciferase gene.
The nPLV preparations were diluted in PBS to the indicated concentrations. The diluted nPLVs were then mixed with the viruses, either alone (no cyclodextrin) or in combination with 0.5 mM (final concentration) of cyclodextrin, in a volume of 100 μl. The virus-nPLV mixtures were incubated at room temperature for 20 minutes with shaking. About 10^5 viral particles were used.
Following incubation, the mixtures were diluted to […] in DMEM without BSA and directly added onto cells. Infections were performed at 33° C. for one hour, and then infectious mixes were removed. Cells were washed once with DMEM without BSA, 10 ml of DMEM with 1% BSA were added and incubation was further performed at 37° C. for 36 hours. Experiment was done in duplicates.
MK2 cells were lysed and luciferase activity was determined using the Promega's Luciferase Assay System. Measurements were done with TD-20/20 luminometer (Turner Designs).

OC[C@H]1O[C@@H]2O[C@H]3[C@H](O)[C@@H](O)[C@@H](O[C@H]4[C@H](O)[C@@H](O)[C@@H](O[C@H]5[C@H](O)[C@@H](O)[C@@H](O[C@H]6[C@H](O)[C@@H](O)[C@@H](O[C@H]7[C@H](O)[C@@H](O)[C@@H](O[C@H]8[C@H](O)[C@@H](O)[C@@H](O[C@H]1[C@H](O)[C@H]2O)O[C@@H]8CO)O[C@@H]7CO)O[C@@H]6CO)O[C@@H]5CO)O[C@@H]4CO)O[C@@H]3CO [β-cyclodextrin]
effect on cellular integrity (cellular integrity): detrimental for cellular integrity and can induce cell death
effect of β-cyclodextrin on the viral inactivation by nPLVs ([1]; 0.5 mM β-cyclodextrin with nPLVs composed of PCE with 0.1% mol of oleic acid (OA), nPLVs 0.02%, 0.05% and 0.1%, FIG. 2A): greatly enhances the viral inactivation; also recorded: strong synergistic effect
concentration at which a direct effect of β-cyclodextrin alone on the viral particles is observed ([1]; in absence of nPLVs, FIG. 2B): higher than 5 mM
